Literature values as cited in patent US20050227966A1 (Wyeth, priority 2004, published 2005).

How the values were obtained:
uterine response = conditions: preclinical models of uterine stimulation
[1] = test system: ovariectomized rat model of osteopenia
[2] = test system: MCF-7 cell line (human breast cancer cell line); conditions: MCF-7 cells

Structure (SMILES): Cc1c(-c2ccc(O)cc2)n(Cc2ccc(OCCN3CCCCCC3)cc2)c2ccc(O)cc12 [bazedoxifene acetate, 1-[4-(2-azepan-1-yl-ethoxy)-benzyl]-2-(4-hydroxy-phenyl)-3-methyl-1H-indol-5-ol acetic acid]
- stimulation of uterine response (uterine response): little or no stimulation
- effect in preventing bone loss and reducing cholesterol [1]: estrogen agonist-like effect
- estrogen agonist/antagonist behaviour [2]: estrogen antagonist
